Assay results from EP3290412A1, “HIV-1 NUCLEOCAPSID INHIBITORS” (Università degli Studi di Siena, priority 2016, dated 2018).
Read-outs that look alike come from different tables or passages of the source.

Experiments:
[1] = target: T1, full length (1-55) HIV-1 NCp7 (Human immunodeficiency virus type 1 group M subtype B, UniProt P12493); assay: Electromobility Shift Assay (EMSA), competition for ssDNA binding; conditions: NCp7 300 nM, M13mp18 ssDNA; positive = >25% inhibition at 100µM
T1 construct: recombinant full length (1-55) HIV-1 NCp7 proteins; made in house
Summary of the method: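 Recombinant NL4-3 NCp7 (300 nM in the pre-mix) was combined with compound in 20 mM Tris-HCl pH 7.4, 2 mM MgCl2, 100 mM NaCl, 1 mM DTT, then M13mp18 ssDNA was added for 25 min at 37 °C. Complexes were run on 1% agarose/0.5x TBE and stained with SybrGold. IC50 is the concentration at which bound ssDNA migrated 50% of the bound–unbound distance (triplicate).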

HeLa cells = assay: HeLa Proliferation assay (CellTiter Glo); type: cell-based; conditions: 72 hours
Summary of the method: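 HeLa cells in phenol red-free DMEM + 10% FBS plated at 2000 cells/well, recovered 4 h, then exposed to compounds for 72 h at 37 °C, 5% CO2. Viability read by CellTiter Glo luminescence.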

NC(11-55) = NC(11-55) (Human immunodeficiency virus type 1, UniProt P12493); assay: NC inhibition assay (NC-induced cTAR DNA destabilization, fluorescence); type: biochemical, HIV-1; conditions: for inhibition at 100 µM: single point screening, positive = >25% inhibition at 100µM
Summary of the method: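 Doubly labelled cTAR (0.1 µM, Alexa488/Dabcyl) pre-complexed with 1 µM Zn-loaded NC(11-55) for 15 min, then compound added for a further 15 min; run at 20 °C in Tris-HCl pH 7.5, 30 mM NaCl, 0.2 mM MgCl2. Fluorescence read at ex 480/em 520 nm. IC50 taken from dose-response fit of % inhibition of NC-induced fluorescence increase.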

[2] = cTAR DNA 0.1 µM, 1 µM NC(11-55), 20 °C, pH 7.5, read-out: NC inhibition IC50

Row | Structure (SMILES) | EMSA screening results [1] | Proliferation assay HELA TD50 (HeLa cells) | IC50 (NC(11-55)) | inhibition at 100 µM (NC(11-55)) | IC50 (NC(11-55); [2])
1 | CC1CCCC(NC(=O)c2nc(-c3ccccn3)nc(O)c2O)C1 (stereo not drawn) [Compound 57, 5,6-dihydroxy-N-(3-methylcyclohexyl)-2-(pyridin-2-yl)pyrimidine-4-carboxamide] | Positive (A compound showing >25% inhibition when tested at 100µM concentration is considered as "positive") | 1909.4 nM | 35.5 µM | > 25% | –
2 | CC1(C)CCC(NC(=O)c2nc(-c3ccccn3)nc(O)c2O)CC1 [Compound 58, N-(4,4-dimethylcyclohexyl)-5,6-dihydroxy-2-(pyridin-2-yl)pyrimidine-4-carboxamide] | Positive (A compound showing >25% inhibition when tested at 100µM concentration is considered as "positive") | 2045.2 nM | 23 µM | > 25% | –
3 | CC1CCCCC1NC(=O)c1nc(-c2ccccn2)nc(O)c1O (stereo not drawn) [Compound 59, 5,6-dihydroxy-N-(2-methylcyclohexyl)-2-(pyridin-2-yl)pyrimidine-4-carboxamide] | Positive (A compound showing >25% inhibition when tested at 100µM concentration is considered as "positive") | 694.6 nM | 50 µM | > 25% | –
4 | CCNCc1ccc(-c2nc(O)c(O)c(C(=O)N[C@H](C)C3CCCCC3)n2)nc1 [Compound 60, (R)-N-(1-cyclohexylethyl)-2-(5-((ethylamino)methyl)pyridin-2-yl)-5,6-dihydroxypyrimidine-4-carboxamide] | Negative | 6428.6 nM | 3.5 µM | > 25% | –
5 | C[C@@H](NC(=O)c1nc(-c2ccc(NC(=O)OC(C)(C)C)cn2)nc(O)c1O)C1CCCCC1 [Compound 61, tert-butyl (R)-(6-(4-((1-cyclohexylethyl)carbamoyl)-5,6-dihydroxypyrimidin-2-yl)pyridin-3-yl)carbamate] | Positive (A compound showing >25% inhibition when tested at 100µM concentration is considered as "positive") | 2035.8 nM | – | > 25% | 17 µM
6 | CC(=O)Nc1ccc(-c2nc(O)c(O)c(C(=O)N[C@H](C)C3CCCCC3)n2)nc1 [Compound 62, (R)-2-(5-acetamidopyridin-2-yl)-N-(1-cyclohexylethyl)-5,6-dihydroxypyrimidine-4-carboxamide] | Positive (A compound showing >25% inhibition when tested at 100µM concentration is considered as "positive") | 4551.9 nM | 15.5 µM | > 25% | –
7 | CC(C)(CNC(=O)c1nc(-c2ccccn2)nc(O)c1O)C1CCCC1 [Compound 63, N-(2-cyclopentyl-2-methylpropyl)-5,6-dihydroxy-2-(pyridin-2-yl)pyrimidine-4-carboxamide] | Positive (A compound showing >25% inhibition when tested at 100µM concentration is considered as "positive") | 398.6 nM | 7 µM | > 25% | –
8 | C[C@H](CC1CCCCC1)NC(=O)c1nc(-c2ccccn2)nc(O)c1O [Compound 64, (R)-N-(1-cyclohexylpropan-2-yl)-5,6-dihydroxy-2-(pyridin-2-yl)pyrimidine-4-carboxamide] | Positive (A compound showing >25% inhibition when tested at 100µM concentration is considered as "positive") | 471.7 nM | 14.5 µM | > 25% | –
9 | CC(NC(=O)c1nc(-c2ccccn2)nc(O)c1O)C1CCCC1 (stereo not drawn) [Compound 65, N-(1-cyclopentylethyl)-5,6-dihydroxy-2-(pyridin-2-yl)pyrimidine-4-carboxamide] | Positive (A compound showing >25% inhibition when tested at 100µM concentration is considered as "positive") | 883.9 nM | 47 µM | > 25% | –
10 | COc1ccc2nc(-c3nc(O)c(O)c(C(=O)N[C@H](C)C4CCCCC4)n3)ccc2c1 [Compound 66, (R)-N-(1-cyclohexylethyl)-5,6-dihydroxy-2-(6-methoxyquinolin-2-yl)pyrimidine-4-carboxamide] | Positive (A compound showing >25% inhibition when tested at 100µM concentration is considered as "positive") | 3660 nM | 8 µM | > 25% | –
11 | Cc1ccc(-c2nc(O)c(O)c(C(=O)N[C@H](C)C3CCCCC3)n2)nc1C [Compound 67, (R)-N-(1-cyclohexylethyl)-2-(,5,6-dimethylpyridin-2-yl)-5,6-dihydroxypyrimidine-4-carboxamide] | Positive (A compound showing >25% inhibition when tested at 100µM concentration is considered as "positive") | 3757.7 nM | – | > 25% | –
12 | COc1cc(-c2nc(O)c(O)c(C(=O)N[C@H](C)C3CCCCC3)n2)nc2ccccc12 [Compound 68, N-[(1R)-1-cyclohexylethyl]-2-(4-methoxyquinolin-2-yl)-5,6-bis(oxidanyl)pyrimidine-4-carboxamide] | Positive (A compound showing >25% inhibition when tested at 100µM concentration is considered as "positive") | 5700.7 nM | – | > 25% | –
13 | COc1ccnc(-c2nc(O)c(O)c(C(=O)N[C@@H](C)C3CCCCC3)n2)c1 [Compound 69, N-[(1S)-1-cyclohexylethyl]-2-(4-methoxypyridin-2-yl)-5,6-bis(oxidanyl)pyrimidine-4-carboxamide] | Positive (A compound showing >25% inhibition when tested at 100µM concentration is considered as "positive") | 3899.9 nM | 49 µM | > 25% | –
14 | C[C@@H](NC(=O)c1nc(-c2cc(N3CCN(C)CC3)ccn2)nc(O)c1O)C1CCCCC1 [Compound 76, (R)-N-(1-cyclohexylethyl)-5,6-dihydroxy-2-(4-(4-methylpiperazin-1-yl)pyridin-2-yl)pyrimidine-4-carboxamide] | Positive (A compound showing >25% inhibition when tested at 100µM concentration is considered as "positive") | 3683.1 nM | 7 µM | > 25% | –
15 | COc1ccnc(-c2nc(O)c(O)c(C(=O)NC3CCC(C)(C)CC3)n2)c1 [Compound 77, N-(4,4-dimethylcyclohexyl)-5,6-dihydroxy-2-(4-methoxypyridin-2-yl)pyrimidine-4-carboxamide] | Positive (A compound showing >25% inhibition when tested at 100µM concentration is considered as "positive") | 2257.8 nM | 23.5 µM | > 25% | –
16 | C[C@H](NC(=O)c1nc(-c2cc(Cl)ccn2)nc(O)c1O)C1CCCCC1 [Compound 78, (S)-2-(4-chloropyridin-2-yl)-N-(1-cyclohexylethyl)-5,6-dihydroxypyrimidine-4-carboxamide] | Positive (A compound showing >25% inhibition when tested at 100µM concentration is considered as "positive") | 2357.6 nM | 18 µM | > 25% | –
17 | Cc1ccnc(-c2nc(O)c(O)c(C(=O)N[C@@H](C)C3CCCCC3)n2)c1 [Compound 79, (S)-N-(1-cyclohexylethyl)-5,6-dihydroxy-2-(4-methylpyridin-2-yl)pyrimidine-4-carboxamide] | Positive (A compound showing >25% inhibition when tested at 100µM concentration is considered as "positive") | 1723.3 nM | 41 µM | > 25% | –
18 | C[C@H](NC(=O)c1nc(-c2nccc3ccccc23)nc(O)c1O)C1CCCCC1 [Compound 80, (S)-N-(1-cyclohexylethyl)-5,6-dihydroxy-2-(isoquinolin-1-yl)pyrimidine-4-carboxamide] | Positive (A compound showing >25% inhibition when tested at 100µM concentration is considered as "positive") | 1611.2 nM | 11 µM | > 25% | –
19 | C[C@H](NC(=O)c1nc(-c2ccc(N)cn2)nc(O)c1O)C1CCCCC1 [Compound 81, (S)-2-(5-aminopyridin-2-yl)-N-(1-cyclohexylethyl)-5,6-dihydroxypyrimidine-4-carboxamide] | Positive (A compound showing >25% inhibition when tested at 100µM concentration is considered as "positive") | 542.5 nM | 22 µM | > 25% | –
20 | C[C@H](NC(=O)c1nc(-c2nccc3[nH]ccc23)nc(O)c1O)C1CCCCC1 [Compound 86, (S)-N-(1-cyclohexylethyl)-5,6-dihydroxy-2-(1H-pyrrolo[3,2-c]pyridin-4-yl)pyrimidine-4-carboxamide] | Positive (A compound showing >25% inhibition when tested at 100µM concentration is considered as "positive") | 1414.7 nM | – | > 25% | 5.5 µM
